# Measurements as given in patent US5629011A, “Composition for nasal administration” (priority 1992, dated 1997).
# Values joined by “and” are separate entries in the source; they are usually repeats but may differ in a detail not shown here. Identical values can stand only once.
# Tests used:
# [1] = intracerebroventricular, mice; cited from earlier work
# [2] = subcutaneous injection, rat; cited from earlier work
# [3] = cited from earlier work; for unwanted side effects: metabolites compared with morphine, for morphine: therapeutic use
# in vivo = details: sheep
# Protocol: (§1) The chitosan concentration was 0.5%. The solution was administered into the sheep nostril using a simple spray pump device followed by serial blood sampling. […] Control experiments were conducted using i.v. dosage of the glucuronide.
# (§2) Blood samples (10 ml) were taken at the following times.
# Plasma was separated by centrifugation soon after sampling and the plasma samples (approximately 5 ml) were stored at -80° C. prior to analysis.
# Biomed. Appl. 230, 427. […] The limit of quantification of the method is 1 ng/ml for a 0.5 ml plasma sample and the assay is linear over the range of 1 to 1200 ng/ml drug concentration.
# [4] = Pharmacokinetic parameters after intravenous administration to sheep; details: for Vd: Apparent Volume of Distibution; for AUC at 5 h: Area Under Curve; for half-life: T1/2, i.v. 0.015 mg/kg
# Protocol: as §1, §2
# (§3) The area under the curve (AUC) was calculated over 0-300 minutes using the linear trapezoidal method. […] Clearance was calculated by dividing the dose by the AUC, and the volume of distribution was calculated by dividing the clearance by the elimination rate constant. The bioavailability was calculated by dividing the mean AUC for nasal administration by the normalised mean AUC after intravenous administration.
# [5] = Pharmacokinetic parameters after nasal administration to sheep; details: for Vd: Apparent Volume of Distribution; for AUC at 5 h: Area Under Curve; for half-life: T1/2, nasal 0.15 mg/kg with 0.5% chitosan
# Protocol: as §1, §2, §3
# [6] = 0.15 mg/kg, morphine-6-glucuronide concentration (plasma)
# [7] = iv, 0.015 mg/kg, morphine-6-glucuronide concentration (plasma)
# [8] = i.v. 0.015 mg/kg, individual sheep NF, OF, PF
# [9] = nasal 0.15 mg/kg with 0.5% chitosan, individual sheep IF, JF, KF, 0.15 mg/kg
compound,measurement,setting,value
CN1CC[C@]23c4c5ccc(O)c4O[C@H]2[C@@H](OS(=O)(=O)O)C=C[C@H]3[C@H]1C5 [morphine-6-sulphate],analgesic potency compared with morphine,[1],more potent analgesic than morphine
same,antinociceptive activity,[2],potent antinociceptive activity
same,unwanted side effects,[3],less likely to have the unwanted side effects
CN1CC[C@]23c4c5ccc(O)c4O[C@H]2[C@@H](O[C@@H]2O[C@H](C(=O)O)[C@@H](O)[C@H](O)[C@H]2O)C=C[C@H]3[C@H]1C5 [morphine-6-glucuronide],concentration at 10 min,in vivo; [6],89.1 ng/mL
same,concentration at 0.25 h,in vivo; [6],121 ng/mL
same,concentration at 20 min,in vivo; [6],102 ng/mL
same,concentration at 0.5 h,in vivo; [6],107 ng/mL
same,concentration at 0.75 h,in vivo; [6],108 ng/mL
same,concentration at 1 h,in vivo; [6],66.7 ng/mL
same,concentration at 1.5 h,in vivo; [6],41.1 ng/mL
same,concentration at 2 h,in vivo; [6],21.9 ng/mL
same,concentration at 3 h,in vivo; [6],10.2 ng/mL
same,concentration at 6 h,in vivo; [6],< 1 ng/mL
same,morphine-6-glucuronide concentration (plasma),"in vivo; iv, 0.015 mg/kg, 2.5 h",3.5 ng/mL
same,concentration at 2 min,in vivo; [7],43.8 ng/mL
same,concentration at 5 min,in vivo; [7],40.3 ng/mL
same,concentration at 10 min,in vivo; [7],36.1 ng/mL
same,concentration at 0.25 h,in vivo; [7],28.6 ng/mL
same,concentration at 20 min,in vivo; [7],23.2 ng/mL
same,concentration at 0.5 h,in vivo; [7],22.5 ng/mL
same,concentration at 1.5 h,in vivo; [7],9.4 ng/mL
same,concentration at 3 h,in vivo; [7],2 ng/mL
same,concentration at 4 h,in vivo; [7],< 1 ng/mL
same,concentration at 5 h,in vivo; [7],< 1 ng/mL
same,concentration at 6 h,in vivo; [7],< 1 ng/mL
same,Area Under Curve,"[4]; i.v. 0.015 mg/kg, 0-300 min, individual sheep NF, OF, PF, 300 min",3819 ng·min/mL and 2560 ng·min/mL
same,Apparent Volume of Distibution,[4]; [8],0.30 lkg^-1 and 0.35 lkg^-1
same,Cmax,[4]; [8],55 ng/mL and 50 ng/mL
same,T1/2,[4]; [8],53 min and 42 min
same,Tmax,[4]; [8],2 min and 5 min
same,clearance,[4]; [8],3.9 mL/min/kg and 5.9 mL/min/kg
same,Vd,"[4]; sheep, plasma, iv, 0.015 mg/kg, i.v. 0.015 mg/kg, individual sheep NF, OF, PF",0.58 L/kg
same,Vd,"[4]; sheep, plasma, iv, 0.015 mg/kg, i.v. 0.015 mg/kg, mean of 3 sheep",0.41 L/kg
same,AUC at 5 h,"[4]; sheep, plasma, iv, 0.015 mg/kg, i.v. 0.015 mg/kg, 0-300 min, individual sheep NF, OF, PF",36.1 ng·h/mL
same,AUC at 5 h,"[4]; sheep, plasma, iv, 0.015 mg/kg, i.v. 0.015 mg/kg, 0-300 min, mean of 3 sheep",47.5 ng·h/mL
same,clearance,"[4]; sheep, plasma, iv, 0.015 mg/kg, Clearance, i.v. 0.015 mg/kg, individual sheep NF, OF, PF",6.9 mL/min/kg
same,clearance,"[4]; sheep, plasma, iv, 0.015 mg/kg, Clearance, i.v. 0.015 mg/kg, mean of 3 sheep",5.6 mL/min/kg
same,Cmax,"[4]; sheep, plasma, iv, 0.015 mg/kg, Cmax, i.v. 0.015 mg/kg, individual sheep NF, OF, PF",44 ng/mL
same,Cmax,"[4]; sheep, plasma, iv, 0.015 mg/kg, Cmax, i.v. 0.015 mg/kg, mean of 3 sheep",50 ng/mL
same,half-life,"[4]; sheep, plasma, iv, 0.015 mg/kg, individual sheep NF, OF, PF",58 min
same,half-life,"[4]; sheep, plasma, iv, 0.015 mg/kg, mean of 3 sheep",51 min
same,Tmax,"[4]; sheep, plasma, iv, 0.015 mg/kg, Tmax, i.v. 0.015 mg/kg, mean of 3 sheep",3 min
same,bioavailability,"[5]; nasal 0.15 mg/kg with 0.5% chitosan, vs normalised mean i.v. AUC, individual sheep IF, JF, KF, 0.15 mg/kg",37.3% and 26.6%
same,Area Under Curve,"[5]; nasal 0.15 mg/kg with 0.5% chitosan, 0-300 min, individual sheep IF, JF, KF, 0.15 mg/kg, 300 min",10631 ng·min/mL and 7581 ng·min/mL
same,Apparent Volume of Distribution,"[5]; nasal 0.15 mg/kg with 0.5% chitosan, corrected for bioavailable dose, individual sheep IF, JF, KF, 0.15 mg/kg",0.31 lkg^-1
same,clearance,"[5]; nasal 0.15 mg/kg with 0.5% chitosan, corrected for bioavailable dose, mean of 3 sheep",5.3 mL/min/kg
same,Cmax,[5]; [9],165 ng/mL and 110 ng/mL
same,T1/2,[5]; [9],41 min and 42 min
same,Tmax,[5]; [9],10 min
same,clearance,"[5]; sheep, plasma, 0.15 mg/kg",5.3 mL/min/kg
same,Vd,"[5]; sheep, plasma, 0.15 mg/kg, nasal 0.15 mg/kg with 0.5% chitosan, corrected for bioavailable dose, individual sheep IF, JF, KF",0.37 L/kg
same,Vd,"[5]; sheep, plasma, 0.15 mg/kg, nasal 0.15 mg/kg with 0.5% chitosan, corrected for bioavailable dose, mean of 3 sheep",0.33 L/kg
same,AUC at 5 h,"[5]; sheep, plasma, 0.15 mg/kg, nasal 0.15 mg/kg with 0.5% chitosan, 0-300 min, individual sheep IF, JF, KF",156 ng·h/mL
same,AUC at 5 h,"[5]; sheep, plasma, 0.15 mg/kg, nasal 0.15 mg/kg with 0.5% chitosan, 0-300 min, mean of 3 sheep",153 ng·h/mL
same,bioavailability,"[5]; sheep, plasma, 0.15 mg/kg, Bioavailability, nasal 0.15 mg/kg with 0.5% chitosan, vs normalised mean i.v. AUC, individual sheep IF, JF, KF",32.9%
same,Cmax,"[5]; sheep, plasma, 0.15 mg/kg, Cmax, nasal 0.15 mg/kg with 0.5% chitosan, individual sheep IF, JF, KF",121 ng/mL
same,Cmax,"[5]; sheep, plasma, 0.15 mg/kg, Cmax, nasal 0.15 mg/kg with 0.5% chitosan, mean of 3 sheep",132 ng/mL
same,half-life,"[5]; sheep, plasma, 0.15 mg/kg, individual sheep IF, JF, KF",51 min
same,half-life,"[5]; sheep, plasma, 0.15 mg/kg, mean of 3 sheep",45 min
same,Tmax,"[5]; sheep, plasma, 0.15 mg/kg, Tmax, nasal 0.15 mg/kg with 0.5% chitosan, individual sheep IF, JF, KF",15 min
same,Tmax,"[5]; sheep, plasma, 0.15 mg/kg, Tmax, nasal 0.15 mg/kg with 0.5% chitosan, mean of 3 sheep",13 min
same,bioavailability,"[5]; sheep, plasma, 0.15 mg/kg, mean nasal bioavailability, nasal 0.15 mg/kg with 0.5% chitosan, vs i.v. AUC normalised to 0.15 mg/kg, mean, n=3",32.3%
same,biological half-life compared with morphine,[3],may also have a longer biological half-life
same,unwanted side effects,[3],less likely to have the unwanted side effects
